# Data published in US11407792B2, “Regulating electron flow using fragmented proteins” (WILLIAM MARSH RICE UNIVERSITY, priority 2017, dated 2022).
# B1: SIR: Zea mays Fd-dependent sulfite reductase, electron acceptor (protein, UniProt O23813 51-635, looked up)
# Sulfite reductase …: VSAPAKKDASEVKRSKVEIIKEKSNFLRYPLNEELVSEAPNINESAVQLIKFHGSYQQTDRDVRGQKNYSFMLRTKNPCGKVPNQLYLAMDTLADEFGIGTLRLTTRQTFQLHGVLKKNLKTVLSTVIKNMGSTLGACGDLNRNVLAPAAPYVKKDILFAQQTAENIAALLTPQSGAYYDLWVDGEKIMSAEEPPEVTKARNDNSHGTNFPDSPEPIYGTQYLPRKFKVAVTAAGDNSVDILTNDIGVVVVSDDAGEPIGFNIYVGGGMGRTHRVETTFPRLADPLGYVPKEDILYAIKAIVVTQRENGRRDDRKYSRMKYMIDRWGIDRFRAEVEKYYGKKFESFRPLPEWQFNSYLGWQEQGDGKLFYGVHVDNGRVGGQAKKTLREIIEKYNLDVSITPNQNLILCGIDQAWREPITTALAQAGLLEPKDVDPLNLTAMACPALPLCPLAQTEAERGILPILKRIRAVFNKVGIKDSESVVVRITGCPNGCARPYMAELGFVGDGPKSYQIWLGGTPNQSTLAESFMDKVKLDDIEKVLEPLFTYWNGTRQEGESFGSFTNRTGFDKLKEVVNKWAESPSAA
# How the values were obtained:
# [1] = test system: sFd-35-ER; experiment: Complementation of E. coli EW11 growth by sFd-35-ER with 4-HT and other estrogen receptor modulators; assay type: cell-based, Escherichia coli; conditions: for Activation of sFd-35-ER ET (growth complementation): agonists, antagonists and an endocrine disruptor; for Effect of estrogen receptor modulators on complementation of E. coli EW11 by sFd-35-ER, compared to DMSO alone: modulator 50 μM, 200 ng/mL aTc
# Description: Growth assay. For all growth experiments, E. coli EW11 were freshly transformed with two plasmids, one encoding the e-donor and acceptor pair (FNR and SIR) and the other encoding either a native Fd, a C42A mutant of Ml Fd that is unable to coordinate a 2Fe-2S cluster, or an engineered Fd. Starter cultures were inoculated using single colonies obtained by selecting for colonies containing both plasmids on LB-agar plates. These starter cultures were grown in deep-well 96-well plates for 18 hours at 37° C. in 1 mL of a non-selective modified M9 medium (M9c), which contained sodium phosphate, dibasic (6.8 g/L), sodium phosphate, monobasic (3 g/L), sodium chloride (0.5 g/L), ammonium chloride (1 g/L), calcium chloride (0.1 mM), magnesium sulfate (10 mM), ferric citrate (24 mg/L), p-aminobenzoic acid (2 mg/L), inositol (20 mg/L), adenine (5 mg/L), uracil (20 mg/L), tryptophan (40 mg/L), tyrosine (1.2 mg/L), and the remaining 18 amino acids (80 mg/L each). For auxotroph complementation analysis, starter cultures that had been grown to stationary phase in M9c were diluted ˜1:100 using a 96-well replicator pin into 100 μL of a selective modified M9 medium (M9sa), which is identical to M9c but lacks cysteine and methionine. […] Optical density (OD) measurements were taken every 10 minutes. To select for the Fd and e-donor/acceptor plasmids, all growth steps included chloramphenicol and streptomycin at 34 μg/mL and 100 μg/mL, respectively.
# To test whether this domain-insertion strategy can be used to diversify the chemical regulation of sFd-35, the ligand-binding domain (LBD) of the human estrogen receptor (ER) was inserted after residue 35 to create sFd-35-ER (FIG. 26E).
# The activity of sFd-35-ER was evaluated by expressing this protein using an aTc-inducible promoter (FIG. 31B). […] This protein was also expressed as a fusion to RFP (sFd-35-ER-RFP) to evaluate how 4-HT affects protein expression.
# To evaluate how these different modulators affect sFd-35-ER ET, sFd-35-ER growth complementation was evaluated in the presence of agonists, antagonists, and an endocrine disruptor (FIG. 32D).
# [2] = test system: E. coli EW11; experiment: E. coli EW11 growth complementation by native, split or engineered Fds; assay type: cell-based, Escherichia coli; conditions: after 24 hours; Fd expressed from an aTc-inducible promoter, FNR and SIR constitutive
# Description: Growth assay. […] Optical density (OD) measurements were taken every 10 minutes.
# To rapidly assay ET mediated by engineered Fds, an Escherichia coli sulfide auxotroph (EW11; Barstow et al., 2011), which cannot grow in minimal medium containing sulfate as a sulfur source unless it expresses a synthetic ET chain consisting of a Fd-NADP+ reductase (FNR) electron donor, a Fd electron carrier, and a Fd-dependent sulfite reductase (SIR) electron acceptor, was used (FIG. 25A). Endogenous oxidoreductases were systematically removed from the genome of this strain to insulate Fd-dependent redox pathways from native redox reactions (Barstow et al., 2011). To evaluate Fd ET, Zea mays FNR and SIR were constitutively expressed and a TetR-repressible promoter was used to control the expression of plant-type 2Fe-2S Fds. […]
# With this expression strategy, the inventors can quickly assess which split Fds require two fragments to function in complementation assays by assessing growth in the presence and absence of both inducers because growth depended upon the level of anhydrotetracycline (aTc) (FIG. 25B), and thus, the amount of Fd available to mediate ET. […] For these experiments, they assessed split Fd function in the presence of a constant high concentration of aTc, and varying concentrations of IPTG, which selectively drive the distinct promoters. […]
# [3] = Midpoint potentials by protein film (square wave) voltammetry; assay type: physicochemical; conditions: relative to standard hydrogen electrode, pH 7.0, 23.5° C.
# Description: Midpoint potentials. Electrochemical experiments were carried out anaerobically in a MBraun Labmaster glovebox using a PGSTAT12 potentiostat. A three-electrode configuration was used in a water-jacketed glass cell. A platinum wire was used as the counter electrode and a standard calomel electrode was used as the reference electrode. Reported potentials are relative to the standard hydrogen electrode. Baseline measurements were collected using an edge-plane graphite (EPG) electrode that was modified with a 100 mM neomycin trisulfate solution, rinsed, and placed into a glass cell containing a 23.5° C. mixed buffer solution (5 mM acetate/MES/MOPS/TAPS/CHES/CAPS) pH 7.0, with 100 mM NaCl. A 5 μL aliquot of 720 μM Ml-Fd or 5 mM sFd-35-ER was applied directly to the electrode surface with or without 1 μL of 50 mM 4-HT, the protein was allowed to […] for approximately one minute at room temperature before being placed into the buffer cell solution. Square wave voltammograms were collected at 23.5° C. with a frequency of 10 Hz and electrochemical signals were analyzed using QSoas.
# To investigate if domain insertion affects the reduction potential of Ml-Fd, Ml-Fd and sFd-35-ER were characterized using protein film voltammetry. In the absence of 4-HT, the midpoint potentials of both Ml-Fd and sFd-35-ER (FIG. 27C) were −336 and −320 mV, respectively. […]
# [4] = test system: lysates derived from E. coli EW11 expressing FNR and SIR; experiment: Sulfide production assay in cell lysates (sulfidefluor-7 fluorescence); assay type: biochemical, Escherichia coli; conditions: y=0.7×+12.252, r^2=0.983
# Description: Cell lysates. Electrocompetent E. coli EW11 were transformed with the plasmid (pSAC01) that constitutively expresses Zea mays FNR and SIR. Cells were grown to stationary phase at 37° C. and 250 rpm in 2×YTPG medium (16 g/L tryptone, 10 g/L yeast extract, 5 g/L NaCl, 3 g/L KH2PO4, 7 g/L K2HPO4, and 18 g/L glucose) containing 100 μg/mL streptomycin. Cells from overnight cultures were diluted 1:100 in fresh 2×YTPG medium containing streptomycin, grown for 2 hours at 37° C. while shaking at 250 rpm until mid-log phase, and then shifted to 30° C. and grown for an additional 4 hours. […] Protein content in lysates was quantified using Bio-Rad Protein Assay Dye Reagent Concentrate (Bio-Rad), using bovine serum albumin (NEB) as a standard.
# Sulfide production assay. […] Following NADPH or protein addition, reactions were arrayed in a Corning 96 well plate at room temperature (Cost ar #3603), transferred to an Infinite m1000 Pro plate reader (Tecan), and heated to 37° C. and shaken at 250 rpm with fluorescence readings (λex=495 nm, λem=520 nm) every 15 seconds. […]
# SIR activity was monitored in desalted cell lysates using sulfidefluor-7 (Lin et al., 2013), a fluorescent probe for hydrogen sulfide. […]
# [5] = Fish et al., 2005; cited from earlier work
# [6] = Hirasawa et al., 2004; cited from earlier work
molecule,measurement,setting,value
Oc1ccc2c(c1)CC[C@H](c1ccccc1)[C@@H]2c1ccc(OCCN2CCCC2)cc1 [lasoxifene],Activation of sFd-35-ER ET (growth complementation),[1],activated
same,"Effect of estrogen receptor modulators on complementation of E. coli EW11 by sFd-35-ER, compared to DMSO alone",[1],significantly enhance growth
"Ml-Fd: Thermostable plant-type 2Fe-2S ferredoxin of Mastigocladus laminosus, UniProt P00248, SEQ ID NO: 11","k1/2, growth complementation as a function of aTc",[2],1.8 ng/mL aTc
same,midpoint potential,[3]; absence of 4-HT,−336 mV
same,midpoint potential,[3]; presence of 4-HT,−330 mV
same,rate of SF7 fluorescence with increasing concentrations of Ml-Fd,[4],linearly increasing rate
same,temperature of optimal ET,[5],65 °C
CC(C)(c1ccc(O)cc1)c1ccc(O)cc1 [bisphenol-A],Activation of sFd-35-ER ET (growth complementation),[1],activated
same,"Effect of estrogen receptor modulators on complementation of E. coli EW11 by sFd-35-ER, compared to DMSO alone",[1],significantly enhance growth
CC[C@H](c1ccc(O)cc1)[C@@H](CC)c1ccc(O)cc1 [hexestrol],Activation of sFd-35-ER ET (growth complementation),[1],not activated
same,"Effect of estrogen receptor modulators on complementation of E. coli EW11 by sFd-35-ER, compared to DMSO alone",[1],do not significantly enhance growth
B1,[4Fe-4S] E°,[6],−415 mV
same,siroheme potential,[6],−285 mV
